Experiment [1] concerns macrophages from mouse peritoneal cavity. Description: chemotaxis of macrophages from mouse peritoneal cavity induced by PAF. Type of experiment: cell-based. The conditions noted are these: Macrophage, 2 hr, read-out: IC50, inhibition of chemotaxis. On the procedure:
4% of sodium mercaptoethanol was injected into C57BL/6 mouse peritoneal cavity to induce macrophages. The cells in peritoneal cavity were collected after injection for 3-4 days. 27 μl of irritant was added into the well at low part of the chemotaxis plate. The filter membrane was covered on the wells and the top part of the plate was assembled on the filter. 55 μl of cells suspension with various concentrations of the compounds or solvent was added into the well at top part of the plate. The plate was placed into incubater with 5% CO2 at 37° C. for 2 hr. The filter was taken out, stained by hematoxylin and dehydrated. The cells migrated into the other side of the filter was counted by microscope.

Experiment [2] has as its system production of TNF-α by macrophages from mouse peritoneal cavity. Description: production of TNF-α by macrophages from mouse peritoneal cavity (LPS, L929 bioassay). Format: cell-based. The conditions noted are these: Macrophage, LPS 10 μg·ml^−1, 24 hr, read-out: IC50, inhibition of the production of TNF-α. The protocol: The macrophages from mouse peritoneal cavity were prepared as described before. 500 μl of cells were inoculated in 48-well plate which was incubated with 5% CO2 at 37° C. for 2.5 hr. The compounds and LPS (final concentration: 10 μg·ml^−1) were added into each well of the plate. After incubating for 24 hr the supernatant was collected. The content of TNF-α was determined by following method. 100 μl of L929 cells (2×10^5cells·ml^−1) with 100 μl of RPMI-1640 or supernatant collected above were inoculated into 96-well plate which incubated under 5% CO2 at 37° C. for 20 hr. The supernatant was discarded. 200 μl of 0.5% crystal violet was added into each well. 10 min later crystal violet outside of the cells was rinsed using normal saline. The cells were dried under room temperature. 100 μl of 10% SDS was added into each well. After the cells were lysed completely the optical density was measured at 570 nm. The well of 1640 media was as the control, The content of TNF-a was evaluated by the percentage of L929 cells survival.

Experiment [3] relates to cutaneous vascular permeability in mice induced by PAF. Description: increase of cutaneous vascular permeability in mice induced by PAF. Format: in vivo, mouse. The settings on record: orally, 50 mg·kg^−1, Kunming mice. The protocol: Kunming mice (male, 18-22 g) were randomly divided into two groups (treatment and control) with 10 animals for each group. The animals were orally administrated with the compounds or solvent, respectively. 1 hr later, 0.25 ml of 1% evans blue dye was injected into the tail vein. After 10 min, 0.1 ml of PAF (1×10^−8 mol·L^−1) was intracutaneously injected into the dorsal skin shaved. 1 hr later, the animals were sacrificed by cervical vertebra displacement. The skin with blue spot was cut off. The evans blue dye was extracted by 0.8 ml of mixed solution of acetone and normal saline (7:3). The supernatant was transferred into the 96-well plate. The optical density was measured at 620 nm.

In experiment [4] the test system is rat paw swelling induced by carrageenan. Description: rat paw swelling induced by carrageenan. Format: in vivo. The settings on record: orally, 100 mg·kg^−1, Wistar rats. On the procedure:
Wistar rats (male, 180±20 g) were randomly divided into two groups (treatment and control) with 10 animals for each group. The animals were orally administrated with the compound or solvent, respectively. 1 hr later, 100 μl of 1% carrageenan was intracutaneously injected into the sole of right posterior foot. The perimeter of the ankle joint inflamed was measured at indicated time. The swelling level was evaluated by the difference of perimeters between the inflamed foot and non-inflamed foot.

For experiment [5], the system named is rat granuloma induced by cotton ball. Kind of experiment: rat granuloma induced by cotton ball. Format: in vivo. The conditions noted are these: orally, 100 mg·kg^−1, 7 days, Wistar rats. On the procedure:
Wistar rats (male, 165±15 g) were randomly divided into two groups (treatment and control) with 10 animals for each group. 10 mg of steriled cotton ball was planted into the two groins of the rat under the anaesthetized by ether. The animals were orally administrated with the compound for 7 days. At seventh day the cotton ball was taken out, dried by the oven and weighed. The hyperplasia of granuloma was evaluated by the increase of weight of dried cotton ball.

The subject of experiment [6] is angiogenesis of the chronic granulomatous air pouch in mice. Kind of experiment: angiogenesis of the chronic granulomatous air pouch in mice. Type of experiment: in vivo, mouse. The settings on record: orally. The protocol: 3 ml of air was injected into the dorsal subcutaneous tissue. 24 hr later, 0.5 ml of 0.1% croton oil in Freund's complete adjuvant was injected into the air pouch. Meanwhile the compound or solvent was orally administrated everyday. At sixth day the mice were anaesthetized and kept at 40° C. for 10 min. 1 ml of 1% carmine red containing 5% gelatin was injected into the tail vein. The animal was kept at 0-4° C. for 2-3 hr. The air-pouch tissue was detached, dried in oven at 56° C. for 48 hr, weighed and cut to small pieces. 2 ml of digesting fluid was added into the tissue. The carmine red was solved by NaOH (5 mol·L^−1). The supernatant was isolated and filtered. The absorbance was measured at 540 nm. The content of carmine red was calculated according to the correct curve.

A further experiment relates to TNF-α in serum. Description: TNF-α in serum of rat with arthritis induced by type II collagen (ELISA). Format: in vivo. The conditions noted are these: Dose 100 mg · kg^−1 × 13 d, orally. The protocol: (§1) 0.1 ml of type II H collagen (2 mg·ml^−1) was intracutaneously injected into the hind foot of Wistar rat (male, 100±10 g) (d0). Seven days later 0.1 ml of type II collagen was intracutaneously injected into the root of tail. At 19th day (d19) the animals inflamed were selected to supply the experiment and randomly divided into two groups. […] The perimeter of the ankle joint of two hind feet, weight of body was measured and the systemic inflammation (including the toes of front and hind feet, ears and tails) was judged by scoring every 3 days. At 41th day 40 μl of 0.2% type II collagen was intracutaneously injected into the right ear. Twenty-four hr later the edema level was evaluated by weighing the ponderance of ear piece (diameter: 8 mm). At 42th day the blood was collected by decapitating. The serum was separated by centrifugating. The contents of antibody for anti-type II collagen, cytokine TNF-α, IL-1β in serum were determined by ELISA kit.
Background: An ELISA detects its analyte on a solid surface through an enzyme-linked reagent.

A further experiment concerns IL-1β in serum. Description: IL-1β in serum of rat with arthritis induced by type II collagen (ELISA). Format: in vivo. The settings on record: Dose 100 mg · kg^−1 × 13 d, orally. The protocol:
as §1, with “At 19th day (d19) the animals inflamed were selected to supply the experiment and randomly divided into two groups.” left out

Structures can show the parent of a compound that is named as a salt.

The term IC50 denotes the point on the concentration scale where inhibition reaches its midpoint. Take `CCOC(=O)C1CCN(CCC(=O)/C=C/c2ccc(Cl)cc2)CC1` [Compound 3, 5-[(4-Ethoxycarbonyl)piperidyl]-1-(4-chlorophenyl)-1-penten-3-one hydrochloride]: the IC50 in experiment [1] was found to be 0.477 nM; in experiment [2], 34 nM. Further, the “Inhibition (%) of increase of cutaneous vascular permeability” value in experiment [3] is 53.23%. Besides, the “Inhibition (%) of rat paw swelling” value in experiment [4] (1 h) turned out to be 49.7%; in experiment [4] (2 h), 55.5%; in experiment [4] (3 h), 44.2%; in experiment [4] (4 h), 29.0%; in experiment [4] (5 h) it was 19.4%. In experiment [5], the “Inhibition (%) of rat granuloma” value is 37.93%. In addition, the “Inhibition (%) of angiogenesis (content of carmine red)” value worked out at 17.8% in experiment [6] (Dose 12.5 mg · kg^−1 × 5 d), 20.6% in experiment [6] (Dose 25 mg · kg^−1 × 5 d) and 28.4% in experiment [6] (Dose 50 mg · kg^−1 × 5 d). The “inhibition (%) of production of TNF-α in serum” value with TNF-α in serum is given as 49.3%. Further, the “Inhibition (%) of production of IL-1β in serum” value in the experiment on IL-1β in serum turned out to be 45.7%.

(Values after patent US8524744B2, “Arylamine ketones, their preparation methods, the pharmaceutical composition containing them and their use” (Institute of Mataria Medica, Chinese Academy of Medical …, priority 2004, dated 2013).)
